In ChEMBL document CHEMBL1201862, “PubChem BioAssay data set” (2004):
Active and inactive are the calls of the source.

Columns and labels:
[1] = target: Cytochrome P450 2D6 (Homo sapiens, UniProt P10635);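 note: CYP2D6 member of a cytochrome P450 panel assay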
[2] = target: Cytochrome P450 2C9 (Homo sapiens, UniProt P11712)
[3] = target: Cytochrome P450 2C19 (Homo sapiens, UniProt P33261); test: Cytochrome panel assay with activity outcomes. Panel member name: p450-cyp2c19 Compounds with AC50 equal or less than 10 uM are considered active; type: functional; conditions: read-out: AC50
[4] = target: T1, Cytochrome P450 1A2 (Homo sapiens, UniProt P05177);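 note: PubChem cytochrome P450 panel assay, CYP1A2 panel member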
T1 sequence (P05177 whole entry): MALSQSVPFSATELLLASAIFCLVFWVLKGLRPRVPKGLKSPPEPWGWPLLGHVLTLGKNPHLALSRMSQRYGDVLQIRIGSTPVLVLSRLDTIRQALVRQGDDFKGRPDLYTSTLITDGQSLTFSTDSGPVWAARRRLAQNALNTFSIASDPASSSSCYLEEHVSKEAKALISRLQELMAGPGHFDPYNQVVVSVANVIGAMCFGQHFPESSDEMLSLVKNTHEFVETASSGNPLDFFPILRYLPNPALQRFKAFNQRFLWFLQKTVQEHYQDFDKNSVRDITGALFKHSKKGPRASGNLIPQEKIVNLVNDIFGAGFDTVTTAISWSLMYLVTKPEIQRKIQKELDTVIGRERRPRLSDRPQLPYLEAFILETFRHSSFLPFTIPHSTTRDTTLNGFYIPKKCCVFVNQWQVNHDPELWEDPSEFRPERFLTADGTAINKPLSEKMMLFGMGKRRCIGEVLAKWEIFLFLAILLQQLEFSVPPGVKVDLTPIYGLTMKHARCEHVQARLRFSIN

[5] = cytotoxicity toward NIH3T3 fibroblasts, dose response, counter-screen, cell-based, ATP luminescence, mouse fibroblasts (AID 2010); type: functional;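 note: cells exposed to compound for about 90 hours before reading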
[6] = inhibitors of intracellular T. cruzi replication, confirmation, NIH3T3 host cells, beta-gal luminescence (AID 2044); type: functional, cell-based;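 note: intracellular parasites grown in NIH/3T3 mouse fibroblasts as host cells; luminescent beta-galactosidase reporter signal from transgenic T. cruzi replicating inside host cells; inhibitors lower the luminescence signal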
[7] = test system: Streptococcus sp. 'group A'; test: growth inhibition of control SK(-) GAS strain, dose response, counter-screen for streptokinase expression inhibitor project, luminescence, kanamycin, BacTiterGlo, confirmation (AID 1900); type: functional, organism-based
[8] = target: T2, Streptokinase A (Streptococcus pyogenes serotype M1, UniProt P10520); test: S. pyogenes streptokinase expression inhibitors, potency, dose response, plasminogen activation absorbance, OD405 (AID 1914); type: functional, Streptococcus pyogenes M1 GAS;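 note: secreted streptokinase activity via plasminogen activation per viability signal from cell pellet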
T2 sequence (P10520 whole entry): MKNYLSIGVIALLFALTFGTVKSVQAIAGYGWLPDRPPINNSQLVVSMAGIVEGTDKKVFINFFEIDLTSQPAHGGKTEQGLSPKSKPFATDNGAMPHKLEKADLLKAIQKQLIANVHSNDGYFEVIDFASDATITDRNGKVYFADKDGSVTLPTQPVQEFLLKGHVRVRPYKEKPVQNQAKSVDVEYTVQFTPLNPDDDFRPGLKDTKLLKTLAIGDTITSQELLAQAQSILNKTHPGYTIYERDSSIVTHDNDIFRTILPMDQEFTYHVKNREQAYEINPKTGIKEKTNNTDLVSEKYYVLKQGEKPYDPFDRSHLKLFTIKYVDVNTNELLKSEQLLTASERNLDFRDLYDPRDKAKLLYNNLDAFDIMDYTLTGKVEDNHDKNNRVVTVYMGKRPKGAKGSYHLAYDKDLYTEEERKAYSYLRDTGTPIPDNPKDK

[9] = test system: Streptococcus; test: Group A Streptococcus viability loss, dose response, counter-screen for streptokinase expression inhibitor project, luminescence, BacTiterGlo (AID 1915); type: functional, organism-based;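 note: potency for reduction of bacterial viability or growth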
[10] = target: T3, Corticotropin-releasing factor receptor 2/Corticotropin-releasing factor-binding protein (Homo sapiens, UniProt P24387+Q13324); test: activators of CRF receptor 2 with binding protein – uHTS hits, confirmation (AID 602473); type: functional; conditions: read-out: EC50_Mean
T3 sequence (Q13324 whole entry): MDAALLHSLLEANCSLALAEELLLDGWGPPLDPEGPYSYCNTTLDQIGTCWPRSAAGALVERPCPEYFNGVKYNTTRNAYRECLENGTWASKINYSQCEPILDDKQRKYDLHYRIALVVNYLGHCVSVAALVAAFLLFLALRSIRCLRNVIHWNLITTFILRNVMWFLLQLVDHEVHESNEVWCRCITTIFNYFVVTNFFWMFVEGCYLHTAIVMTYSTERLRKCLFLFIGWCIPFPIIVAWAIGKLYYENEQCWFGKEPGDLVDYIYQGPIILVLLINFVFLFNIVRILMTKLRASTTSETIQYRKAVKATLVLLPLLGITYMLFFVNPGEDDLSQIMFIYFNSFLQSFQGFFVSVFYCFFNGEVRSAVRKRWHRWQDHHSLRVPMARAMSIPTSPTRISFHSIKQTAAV
T3 sequence (P24387 whole entry): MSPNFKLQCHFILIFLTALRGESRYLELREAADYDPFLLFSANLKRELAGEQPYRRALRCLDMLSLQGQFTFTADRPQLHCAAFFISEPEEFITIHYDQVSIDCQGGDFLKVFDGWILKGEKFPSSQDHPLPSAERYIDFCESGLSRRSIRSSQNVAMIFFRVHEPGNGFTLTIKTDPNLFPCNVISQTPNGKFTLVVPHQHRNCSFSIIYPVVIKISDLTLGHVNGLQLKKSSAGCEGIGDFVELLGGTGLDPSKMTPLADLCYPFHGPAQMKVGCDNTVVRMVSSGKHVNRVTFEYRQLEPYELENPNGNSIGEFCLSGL

[11] = target: T3, Corticotropin-releasing factor receptor 2/Corticotropin-releasing factor-binding protein; test: Dose Response confirmation of uHTS hits for small molecule antagonists of the CRF-binding protein and CRF-R2 receptor complex.; type: functional; conditions: read-out: IC50_Mean
[12] = target: Cytochrome P450 3A4 (Homo sapiens, UniProt P08684);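 note: CYP3A4 tested as one member of a cytochrome P450 panel screen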
Cytochrome P450 3A4, sequence (P08684 whole entry): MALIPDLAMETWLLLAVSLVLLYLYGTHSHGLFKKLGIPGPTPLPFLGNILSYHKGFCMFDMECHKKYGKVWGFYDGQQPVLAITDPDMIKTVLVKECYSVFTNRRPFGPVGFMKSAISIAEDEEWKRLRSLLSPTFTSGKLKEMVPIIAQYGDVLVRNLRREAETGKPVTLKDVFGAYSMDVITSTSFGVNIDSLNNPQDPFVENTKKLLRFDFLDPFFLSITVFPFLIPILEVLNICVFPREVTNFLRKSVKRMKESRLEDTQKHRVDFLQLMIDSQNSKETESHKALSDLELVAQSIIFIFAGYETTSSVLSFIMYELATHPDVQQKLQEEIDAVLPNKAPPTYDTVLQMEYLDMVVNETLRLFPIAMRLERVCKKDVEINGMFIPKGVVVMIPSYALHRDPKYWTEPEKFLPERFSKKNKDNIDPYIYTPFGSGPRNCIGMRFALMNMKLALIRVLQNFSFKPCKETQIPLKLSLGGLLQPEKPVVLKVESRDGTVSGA

Cytochrome P450 2D6, sequence (P10635 whole entry): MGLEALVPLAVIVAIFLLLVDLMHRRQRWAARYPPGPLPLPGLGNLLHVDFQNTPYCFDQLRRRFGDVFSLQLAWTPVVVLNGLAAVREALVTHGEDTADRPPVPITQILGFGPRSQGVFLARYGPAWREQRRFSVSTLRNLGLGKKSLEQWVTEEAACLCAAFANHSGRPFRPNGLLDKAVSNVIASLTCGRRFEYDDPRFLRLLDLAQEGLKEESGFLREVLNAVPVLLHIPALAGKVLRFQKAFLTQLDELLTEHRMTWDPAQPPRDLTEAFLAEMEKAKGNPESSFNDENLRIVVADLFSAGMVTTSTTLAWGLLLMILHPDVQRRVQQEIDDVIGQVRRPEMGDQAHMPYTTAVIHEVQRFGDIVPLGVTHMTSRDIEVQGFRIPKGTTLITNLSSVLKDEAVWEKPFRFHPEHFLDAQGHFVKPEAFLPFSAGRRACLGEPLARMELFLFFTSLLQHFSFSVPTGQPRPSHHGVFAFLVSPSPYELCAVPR
Cytochrome P450 2C9, sequence (P11712 whole entry): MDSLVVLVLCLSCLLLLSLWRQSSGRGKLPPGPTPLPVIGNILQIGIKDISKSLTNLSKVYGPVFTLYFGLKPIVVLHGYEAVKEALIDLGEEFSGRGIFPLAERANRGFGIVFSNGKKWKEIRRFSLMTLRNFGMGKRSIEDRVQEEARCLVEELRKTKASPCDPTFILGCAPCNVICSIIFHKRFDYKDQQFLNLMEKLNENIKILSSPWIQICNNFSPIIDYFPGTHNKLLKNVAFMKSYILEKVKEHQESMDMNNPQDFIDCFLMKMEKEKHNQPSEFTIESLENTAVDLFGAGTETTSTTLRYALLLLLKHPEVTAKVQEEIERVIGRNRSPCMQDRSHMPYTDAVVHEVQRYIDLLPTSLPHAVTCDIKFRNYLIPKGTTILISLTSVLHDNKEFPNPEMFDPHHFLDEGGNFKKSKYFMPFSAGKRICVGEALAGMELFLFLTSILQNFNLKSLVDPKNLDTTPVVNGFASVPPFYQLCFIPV
Cytochrome P450 2C19, sequence (P33261 whole entry): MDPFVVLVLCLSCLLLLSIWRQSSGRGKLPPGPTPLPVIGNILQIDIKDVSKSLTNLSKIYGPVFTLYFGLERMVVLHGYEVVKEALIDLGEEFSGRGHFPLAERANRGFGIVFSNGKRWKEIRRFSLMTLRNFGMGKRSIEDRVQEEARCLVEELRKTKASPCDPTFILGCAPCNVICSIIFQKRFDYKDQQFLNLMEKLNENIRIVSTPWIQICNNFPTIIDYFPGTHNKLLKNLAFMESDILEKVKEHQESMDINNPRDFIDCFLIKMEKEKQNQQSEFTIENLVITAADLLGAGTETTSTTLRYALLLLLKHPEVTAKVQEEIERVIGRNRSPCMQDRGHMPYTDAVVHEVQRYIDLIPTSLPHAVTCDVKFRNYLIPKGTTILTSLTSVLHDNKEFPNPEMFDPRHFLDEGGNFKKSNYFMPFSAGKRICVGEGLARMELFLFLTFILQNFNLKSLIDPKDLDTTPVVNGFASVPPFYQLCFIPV

Cc1noc(C)c1-c1nc(N2CCN(C)CC2)c2ccccc2n1
AC50 [1]: 39.8 µM (inconclusive)

COc1cccc(Cn2c(=O)c(-c3ccc(Cl)cc3)nc3cnc(OC)nc32)c1
AC50 [2]: 7.94 µM (inconclusive)
AC50 [3]: 1.26 µM (inconclusive)

C=CC[C@@H]1C=C[C@H](Oc2ccc(C)cc2)[C@H](COC(=O)NCc2cccc3ccccc23)O1
AC50 [2]: 3.98 µM (inconclusive)
AC50 [1]: 7.94 µM (inconclusive)

Cc1ccccc1C(=O)c1cccn1CC(=O)NCc1ccco1
AC50 [4]: 10 µM (inconclusive)

C=CCn1c(SCC(=O)N2CC(=O)Nc3ccccc32)nc2scc(-c3ccccc3)c2c1=O
AC50 [4]: 14.1 µM (inconclusive)

Cc1c(C(=O)N2CCC(Cc3ccccc3)CC2)sc2ncnc(N3CCC(C)CC3)c12
EC50 [5]: > 60 µM (not active)
EC50 [6]: 1.68 µM (active)
EC50 [7]: 11.6 µM (active)
EC50 [8]: 3.68 µM (active)
EC50 [9]: 60 µM (active)

O=C(CSc1nnc(Cn2nnc3ccccc32)o1)Nc1cccc(Cl)c1
AC50 [2]: 15.8 µM (inconclusive)
AC50 [3]: 22.4 µM (inconclusive)

O=C(Nc1ccccc1N1CCOCC1)c1ccc([N+](=O)[O-])cc1
AC50 [2]: 10 µM (inconclusive)
AC50 [1]: 15.8 µM (inconclusive)

Nc1c2c(nc3ccccc13)CCN(Cc1ccccc1)C2
EC50 [10]: > 53 µM (inactive)

COC(=O)[C@@]1(Cc2ccc(OC)cc2)[C@H]2c3cc(C(=O)N4CCCC4)n(Cc4c(CO)ncc(C)c4O)c3C[C@H]2CN1C(=O)c1ccccc1
AC50 [4]: 25.1 µM (inconclusive)
AC50 [1]: 20 µM (inconclusive)

COc1ccc(CNC(=O)CN2CCN(S(=O)(=O)c3cc(Br)ccc3Br)CC2)cc1OC
EC50 [10]: > 53 µM (inactive)
IC50 [11]: > 47.1 µM (inactive)

Cc1cc(OCC(=O)C(C)(C)C)c2c(C)c(C)c(=O)oc2c1
EC50 [10]: > 53 µM (inactive)
IC50 [11]: > 47.1 µM (inactive)

NC(=S)c1ccc[n+]([C@@H]2O[C@@H](COP(=O)([O-])OP(=O)(O)OC[C@@H]3O[C@@H](n4cnc5c(N)ncnc54)[C@@H](OP(=O)(O)O)[C@H]3O)[C@@H](O)[C@H]2O)c1
AC50 [4]: 39.8 µM (inconclusive)

CCOC(=O)c1c(NC(=O)CCCN2CCOCC2)sc2c1CC(C)(C)OC2
AC50 [2]: 0.282 µM (inconclusive)
AC50 [3]: 39.8 µM (inconclusive)

Cc1ccc(C)c(Cn2cnc3c(cnn3C(C)(C)C)c2=O)c1
AC50 [4]: 10 µM (inconclusive)
AC50 [12]: 0.794 µM (inconclusive)

CC(C)CN1CC[C@@]2(CCCN(C(=O)Oc3ccccc3)C2)C1
AC50 [2]: 31.6 µM (inconclusive)
AC50 [4]: 15.8 µM (inconclusive)

O=C(Nc1ccccc1)N1CCCC2(CCN(C(=O)c3csnn3)CC2)C1
AC50 [3]: 3.98 µM (inconclusive)
AC50 [4]: 25.1 µM (inconclusive)
AC50 [1]: 39.8 µM (inconclusive)

O=C(NCC1CCCO1)C(c1cccnc1)N(C(=O)Cc1cccs1)c1ccccc1 (configuration not stated)
AC50 [2]: 15.8 µM (inconclusive)
AC50 [3]: 17.8 µM (inconclusive)
AC50 [1]: 15.8 µM (inconclusive)

COC(=O)[C@@]1(Cc2ccc(OC)cc2)[C@H]2c3cc(C(=O)N4CCCC4)n(CCN4CNCC4=O)c3C[C@H]2CN1C(=O)c1ccccc1
AC50 [4]: 31.6 µM (inconclusive)

Cc1ccc(Oc2ccccc2/C=C2\SC(=O)N(C)C2=O)cc1
AC50 [1]: 8.91 µM (inconclusive)

Oc1c(CN2CCOCC2)cc(-c2ccccc2)cc1CN1CCOCC1
AC50 [2]: 28.2 µM (inconclusive)
AC50 [3]: 11.2 µM (inconclusive)

O=C(CC(=O)NN=C1CCCC1)NCCc1ccccc1
AC50 [3]: 25.1 µM (inconclusive)

CCC(=O)Nc1nnc(C(C)(C)C)s1
AC50 [4]: 17.8 µM (inconclusive)

CCCCCC/C(C)=C1/SC(=S)NC1=O
AC50 [1]: 28.2 µM (inconclusive)

O=[N+]([O-])c1ccc(S(=O)(=O)NCC(c2cccnc2)N2CCc3ccccc32)cc1 (configuration not stated)
EC50 [5]: > 60 µM (not active)
EC50 [6]: 0.622 µM (active)

CCN1CC(CN(C)Cc2nc(-c3ccc(C(F)(F)F)cc3)oc2C)CC1=O (configuration not stated)
EC50 [5]: 32.6 µM (active)
EC50 [6]: 0.288 µM (active)

COc1ccc(CCNC(=O)c2nnn(CC(=O)Nc3ccccc3C)c2N)cc1OC
AC50 [3]: 17.8 µM (inconclusive)

Cc1cc2c(nc1C)CCCCN2C[C@H](O)CN1CCCc2nc(-c3ccc(Br)cc3)ccc21
AC50 [2]: 3.98 µM (inconclusive)
AC50 [1]: 3.16 µM (inconclusive)

COc1cc(/C=C2\CCC(C)C3=C(c4cc(OC)c(OC)c(OC)c4)C(C#N)=C(N)OC32)cc(OC)c1OC (configuration not stated)
EC50 [10]: > 53 µM (inactive)

O=C(CSc1nc2ccccc2c(=O)n1NC(=O)Cc1ccccc1)NCc1ccccc1Cl
AC50 [1]: 2.82 µM (inconclusive)

O=C(Oc1ccc(S(=O)(=O)F)cc1F)c1ccccc1Cl
AC50 [4]: 5.01 µM (inconclusive)

CCOc1ccccc1NC(=O)C1CCC(=O)N1S(=O)(=O)c1ccc(C)cc1 (configuration not stated)
EC50 [10]: > 53 µM (inactive)
IC50 [11]: > 47.1 µM (inactive)

[O-]c1c[n+](CC[n+]2cc([O-])on2)no1
AC50 [4]: 2.51 µM (inconclusive)

Oc1nc2cc(Cl)ccc2c(O)c1-c1ccc(Oc2ccccc2)cc1
AC50 [4]: 10 µM (inconclusive)
AC50 [12]: 10 µM (inconclusive)

O=C(Cn1c(-c2ccccc2)c[n+]2ccsc12)c1ccccc1
EC50 [5]: > 30 µM (not active)
EC50 [6]: 2.29 µM (active)

O=C(/C=C/c1ccccc1)NNC(=O)c1cccnc1
AC50 [2]: 7.08 µM (inconclusive)
AC50 [3]: 31.6 µM (inconclusive)

COC(=O)C1=C(C)NC(C)=C(C(=O)OC(C)C)[C@H]1c1cccc2nonc12 [(S)-ISRADIPINE]
AC50 [4]: 12.6 µM (inconclusive)

CCC(=C(CC)c1ccc(O)cc1)c1ccc(O)cc1 [DIETHYLSTILBESTROL]
AC50 [2]: 12.6 µM (active)
AC50 [3]: 15.8 µM (inconclusive)
AC50 [4]: 15.8 µM (active)
AC50 [1]: 15.8 µM (inconclusive)
